Assay results: patent publication US20240124389A1, “COMPOUND OR SALT THEREOF, LIPID PARTICLES, AND PHARMACEUTICAL COMPOSITION” (FUJIFILM Corporation, priority 2021, published 2024)

How the values were obtained:
[1] = Particle size of EPO mRNA-encapsulating lipid particles; type: physicochemical; conditions: lipid/nucleic acid 32 wt/wt
Experimental: (§1) The compounds described in Table 1, the neutral lipid, cholesterol (product name: Cholesterol HP; NIPPON FINE CHEMICAL CO., LTD.), and 1,2-dimyristoyl-rac-glycero-3-(methylpolyoxyethylene 2000) (hereinafter, called DMG-PEG2000) (product name: SUNBRIGHT® GM-020; NOF corporation) were dissolved in ethanol at a molar ratio in Table 1 such that the total lipid concentration became 20 mmol/L, thereby obtaining an oil phase.
(§2) As the neutral lipid, 1,2-distearoyl-sn-glycero-3-phosphocholine (product name: COATSOME® MC-8080; NOF corporation) (hereinafter, DSPC), or L-α-dioleoyl phosphatidylethanolamine (Hereinafter, DOPE) (product name: COATSOME® ME-8181; NOF corporation), or 1,2-dioleoyl-sn-glycero-3-phosphocholine (hereinafter, DOPC) (product name: COATSOME® MC-8181; NOF corporation) was used.
(§3) EPO mRNA (product name: CleanCap EPO mRNA (5moU); TriLink) was diluted with 50 mmol/L citrate buffer having a pH 4 such that the weight ratio of total lipid concentration to mRNA concentration is about 16:1 to 64:1, thereby obtaining a water phase. Then, the water phase and the oil phase were mixed together using NanoAssemblr (Precision NanoSystems) such that the volume ratio of water phase:oil phase was 3:1, and the mixed solution was 1.5-fold diluted with phosphate buffered saline (PBS), thereby obtaining a dispersion liquid of mRNA lipid particles. The dispersion liquid was dialyzed with a 10% aqueous sucrose solution using a dialysis cassette (Slide-A-Lyzer G2, MWCO: 10 kD, Thermo Fisher Scientific) to remove ethanol, thereby obtaining EPO mRNA-encapsulating lipid particles.
(§4) The particle size of the mRNA-encapsulating lipid particles was measured by 10-fold diluting the dispersion liquid of lipid particle with phosphate buffered saline (PBS) using Zeta-potential & Particle size Analyzer ELS-Z2 (Otsuka Electronics Co., Ltd.).

EPO mRNA = assay: mRNA encapsulation rate of EPO mRNA-encapsulating lipid particles; type: physicochemical; conditions: lipid/nucleic acid 32 wt/wt
Experimental: as §1, §2, §3
(§5) 15 to 30 μL of a 3 mol/L aqueous sodium acetate solution and 4.5 to 9 μL of glycogen were added to 30 to 60 μL of the lipid particles retaining mRNA, and 0.75 to 1.5 mL of ethanol was added thereto, so that only the nucleic acids were precipitated while the lipid was dissolved. Then, the supernatant was removed by centrifugation. The precipitates were air-dried for 15 minutes or longer, then water was added thereto to redissolve the precipitates, and the concentration thereof was measured using Nanodrop NF1000 (Thermo Fisher Scientific), thereby quantifying the total mRNA concentration.
(§6) The mRNA concentration was quantified using a Quant-iT RiboGreen RNA Assay Kit (Thermo Fisher Scientific) according to the protocol. First, a 20×TE buffer included in the above-described kit was diluted with water, thereby obtaining a 1×TE buffer. TE represents Tris/EDTA (ethylenediaminetetraacetic acid). In order to quantify only mRNA in the outer water phase, the dispersion liquid of lipid particles retaining mRNA was 10,000-fold diluted with the 1×TE buffer. 100 μL of the 10,000-fold diluted dispersion liquid of lipid particles was put into a 96-well plate, then 100 μL of a RiboGreen reagent (reagent included in the Quanti-iT Ribogreen RNA Assay Kit described above) 2,000-fold diluted with the 1×TE buffer was added to a sample, and fluorescence (excitation wavelength: 485 nm, fluorescence wavelength: 535 nm) was measured using a plate reader Infinite F200 (TECAN), thereby quantifying the mRNA concentration in the outer water phase.
(§7) By using the quantification results of the total mRNA concentration and the mRNA concentration in the outer water phase that were obtained through the above steps, the mRNA encapsulation rate of the mRNA lipid particles was calculated according to the following Equation.
(§8) mRNA encapsulation rate (%)=(total mRNA concentration-mRNA concentration in outer water phase)/total mRNA concentration×100

human EPO = assay: Measurement of EPO enzyme activity (EPO protein in blood plasma of mice after intravenous administration of EPO mRNA lipid particles); type: in vivo; conditions: C57BL/6J mice, tail-vein i.v., mRNA 0.1 mg/kg, plasma 20 to 24 hours, lipid/nucleic acid 32 wt/wt
Experimental: as §1, §2, §3
The dispersion liquid of mRNA lipid particles prepared in above-described <Preparation of EPO mRNA-encapsulating lipid particles> was tail-vein intravenously administered to C57BL/6J mice at a mRNA dosage of 0.1 mg/kg. 20 to 24 hours after the administration, blood was collected from the caudal vena cava, thereby obtaining blood plasma. The human EPO enzyme activity was quantified by using the obtained blood plasma and ab119522 Erythropoietin (EPO) Human Elisa Kit (Abcam.plc). The quantitative value is described as a relative amount of EPO protein in a case where Comparative Example 1 is 1.

[2] = Particle size of FLuc mRNA-encapsulating lipid particles; type: physicochemical; conditions: lipid/nucleic acid 32 wt/wt
Experimental: as §1, with “Table 2,” for “Table 1,”, “HP; NTPPON” for “HP; NIPPON”, “DMG-PEG2000)” for “DMG-PEG2000) (product name: SUNBRIGHT® GM-020; NOF corporation)”, “Table 2” for “Table 1”
(§9) As the neutral lipid, 1,2-distearoyl-sn-glycero-3-phosphocholine (product name: COATSOME® MC-8080; NOF corporation) was used in a case of Comparative Example 1, and L-α-dioleoylphosphatidylethanolamine (product name: COATSOME® MC-8181; NOF corporation) was used in a case other than Comparative Example 1.
as §3, with “FLuc” for “EPO”, “(5 moU);” for “(5moU);”, “19:1” for “16:1”, “64:1,” for “64:1, thereby”
as §4

FLuc mRNA [3] = assay: mRNA encapsulation rate of FLuc mRNA-encapsulating lipid particles; type: physicochemical; conditions: aminolipid 45 / DOPE 10 / cholesterol 43.5 / DMG-PEG2000 1.5 mol %, lipid/nucleic acid 32 wt/wt
Experimental: as §1, with “Table 2,” for “Table 1,”, “HP; NTPPON” for “HP; NIPPON”, “DMG-PEG2000)” for “DMG-PEG2000) (product name: SUNBRIGHT® GM-020; NOF corporation)”, “Table 2” for “Table 1”
as §9
as §3, with “FLuc” for “EPO”, “(5 moU);” for “(5moU);”, “19:1” for “16:1”, “64:1,” for “64:1, thereby”
as §5, §6, §7, §8

[4] = Particle size of FLuc mRNA-encapsulating lipid particles; type: physicochemical; conditions: aminolipid 45 / DOPC 10 / cholesterol 43.5 / DMG-PEG2000 1.5 mol %, lipid/nucleic acid 32 wt/wt
FLuc mRNA [5] = assay: mRNA encapsulation rate of FLuc mRNA-encapsulating lipid particles; type: physicochemical; conditions: lipid/nucleic acid 32 wt/wt
[6] = aminolipid 45 / DOPC 10 / cholesterol 43.5 / DMG-PEG2000 1.5 mol %
[7] = aminolipid 45 / DOPE 10 / cholesterol 43.5 / DMG-PEG2000 1.5 mol %
[8] = aminolipid 45 / no neutral lipid / cholesterol 53.5 / DMG-PEG2000 1.5 mol %
[9] = aminolipid 45 / neutral lipid — (composition printed 10) / cholesterol 53.5 / DMG-PEG2000 1.5 mol %

## CCCCCC(CCCCC)COC(=O)CCCC(CCC)OC(=O)OCCN(CCCN(CC)CC)CCOC(=O)OC(CCC)CCCC(=O)OCC(CCCCC)CCCCC (stereo not drawn) [Example 28, Bis(2-pentylheptyl) 11-(3-(diethylamino)propyl)-7,15-dioxo-5,17-dipropyl-6,8,14,16-tetraoxa-11-azahenicosanedi oate]
[1]; [6]
  Particle size: 82.1 nm
[1]; [7]
  Particle size: 115.7 nm
[1]; [8]
  Particle size: 155.2 nm
EPO mRNA; [6]
  Nucleic acid encapsulation rate: 99.2%
EPO mRNA; [7]
  Nucleic acid encapsulation rate: 98.8%
EPO mRNA; [8]
  Nucleic acid encapsulation rate: 99.2%
Human EPO; [6]
  Relative amount of EPO protein (with respect to Comparative Example 1): 3.54
Human EPO; [7]
  Relative amount of EPO protein (with respect to Comparative Example 1): 1.23
Human EPO; [8]
  Relative amount of EPO protein (with respect to Comparative Example 1): 1.47
[2]; [7]
  Particle size: 82.9 nm
[2]; [9]
  Particle size: 164.6 nm
FLuc mRNA [3]
  Nucleic acid encapsulation rate: 100.0%
[4]
  Particle size: 104.3 nm
FLuc mRNA [5]; [6]
  Nucleic acid encapsulation rate: 99.1%
FLuc mRNA [5]; [9]
  Nucleic acid encapsulation rate: 99.1%
